Laboratory results taken from US9243027B2, “TGR5 modulators and methods of use thereof” (Intercept Pharmaceuticals, Inc., priority 2007, dated 2016).

Molecular target: T1, TGR5 receptor (Homo sapiens, UniProt Q8TDU6)
T1 sequence (Q8TDU6 1-330): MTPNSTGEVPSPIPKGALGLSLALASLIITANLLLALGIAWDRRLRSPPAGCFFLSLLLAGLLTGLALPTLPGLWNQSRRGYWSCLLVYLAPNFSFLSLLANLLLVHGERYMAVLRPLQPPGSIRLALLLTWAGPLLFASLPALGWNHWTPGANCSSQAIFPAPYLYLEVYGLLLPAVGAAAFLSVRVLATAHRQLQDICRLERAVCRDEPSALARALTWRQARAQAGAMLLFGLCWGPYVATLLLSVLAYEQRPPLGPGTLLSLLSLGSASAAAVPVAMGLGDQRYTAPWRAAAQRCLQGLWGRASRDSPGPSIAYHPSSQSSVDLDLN
Assay: Potency and efficacy on TGR5 receptor, in vitro assays (Kawamata 2003)
Type: cell-based
Procedure: The potency and efficacy of the compounds of the invention on TGR5 receptor was evaluated using in vitro assays.

With `C[C@H](CCC(=O)O)[C@H]1CCC2C3C(CC[C@@]21C)[C@@]1(C)CC[C@@H](O)C[C@H]1C[C@H]3O` (stereo partly shown) [CDCA, ChenoDeoxyCholicAcid] the “TGR5 Data Efficacy” value was 100%.
